Assay results taken from ChEMBL document CHEMBL3045480, “Goat brain enkephalin degrading enzyme: interaction with analgesic and antihypertensive drugs” (Med Chem Res, 2011).

The compounds below were run against T1, Dipeptidyl peptidase 3 (Bos mutus) (UniProt L8I2E6) (assay: Inhibition of Capra hircus (goat) brain DPP-3 using Arg-Arg-4mbetaNA as substrate assessed as liberation of 4mbetaNA from substrate). Details: target entry is the homologue from another species.
T1 sequence (whole entry): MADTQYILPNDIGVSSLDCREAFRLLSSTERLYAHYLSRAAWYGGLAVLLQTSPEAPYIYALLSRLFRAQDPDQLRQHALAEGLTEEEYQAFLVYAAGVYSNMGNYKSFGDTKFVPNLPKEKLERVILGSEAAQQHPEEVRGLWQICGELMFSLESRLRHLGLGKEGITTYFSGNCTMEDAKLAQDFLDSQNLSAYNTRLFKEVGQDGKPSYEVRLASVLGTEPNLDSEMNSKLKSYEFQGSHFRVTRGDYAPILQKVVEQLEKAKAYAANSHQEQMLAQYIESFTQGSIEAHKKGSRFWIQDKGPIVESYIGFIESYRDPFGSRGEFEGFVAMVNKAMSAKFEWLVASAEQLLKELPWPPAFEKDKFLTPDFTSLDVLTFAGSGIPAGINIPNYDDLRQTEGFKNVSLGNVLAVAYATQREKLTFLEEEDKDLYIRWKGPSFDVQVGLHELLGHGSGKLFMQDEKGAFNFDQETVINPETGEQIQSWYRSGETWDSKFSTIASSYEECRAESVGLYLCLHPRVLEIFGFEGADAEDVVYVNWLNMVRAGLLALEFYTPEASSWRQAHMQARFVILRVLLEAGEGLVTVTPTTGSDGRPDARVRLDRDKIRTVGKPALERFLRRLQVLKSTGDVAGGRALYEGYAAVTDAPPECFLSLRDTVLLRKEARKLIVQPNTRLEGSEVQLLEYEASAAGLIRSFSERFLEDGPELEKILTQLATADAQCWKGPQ

**Q.** How did the inhibition turn out when `CC(=O)Nc1ccc(O)cc1` was run?
**A.** 96%

**Q.** For `O=C(O)Cc1ccccc1Nc1c(Cl)cccc1Cl`, which inhibition is on record?
**A.** 85%

**Q.** With `CS(=O)(=O)c1ccc(C2=C(c3ccccc3)C(=O)OC2)cc1` as the compound, how does the inhibition read?
**A.** 71%
